Laboratory results as given in patent EP2910557A1, “Enantiopure tetrasubstituted pyrrolidines as scaffolds for proteasome inhibitors and medicinal applications thereof” (Ikerchem, S.L., priority 2014, dated 2015).

Key:
Assay in all cases: Cancer cell growth inhibition, 72 h treatment
Assay type in all cases: cell-based
[1] = test system: K562; details: Homo sapiens, Hematologic K562, Alamar Blue
Experimental: (§1) Cell culture-based assays were used to evaluate the ability of compounds of the invention to inhibit cancer cell growth.
(§2) Cells were obtained from the American Type Culture Collection (ATCC) and the European Collection of Cell Cultures. Cells were thawed in their appropriate media plus supplements (see table below). Cells were passaged at confluence by washing once in HBSS cation-free followed by a 3 minutes incubation with trypsin ([0.5 µg/ml]/EDTA [0.2 µg/ml]) (Gibco-BRL, 15400054) solution in HBSS at 37°C (except non-adherent cell lines - hematologic), and transferred to their appropriate media plus supplements. Prior to seeding at defined cell concentration, cells were recovered in medium, centrifuged, taken up in medium and counted.
(§3) All treatments were performed in triplicate. Experiments were carried out in 96-well cell culture plates (Cultek) and the cell lines seeded at the density mentioned in the table above and cultured at 37°C with 5% CO2. After 24h, media were supplemented by 100 µl/well of diluted test compound at variable final concentrations and incubated for 72 hours. Then, AlamarBlue® Reagent (Biosource DAL1100) was added to each well and incubated at 37°C for 4 hours. Relative fluorescent intensity that correlates with the number of living cells was read in a Cytofluor plate reader (Millipore) at 535/590 nm (Excitation/emission). After reading the AlamarBlue® signal, the hexosaminidase activitity was measured according to the following protocol: medium was removed and cells were washed once with PBS. 60 µl of substrate solution (p-nitrophenol-N-acetyl-beta-D-glucosaminide 7.5 mM [Sigma N-9376], sodium citrate 0.1 M, pH 5.0, 0.25% Triton X-1 00) was added to each well and incubated at 37°C for 1-2 hours; after this incubation time, a bright yellow colour appears; then, plates could be developed by adding 90 µl of developer solution (Glycine 50 mM, pH 10.4; EDTA 5 mM), and absorbance was recorded at 405 nm.
(§4) Note: In all cases assays were performed in Alamar Blue with the exception of those indicated (* = Hexosaminidase assay)

[2] = test system: Jurkat; details: Homo sapiens, Hematologic Jurkat, Alamar Blue
Experimental: as §1, §2, §3, §4

[3] = test system: NCI-H1975; details: Homo sapiens
Experimental: as §1, §2, §3, §4

[4] = test system: MCF-7; details: Homo sapiens, MCF7, Breast cancer MCF-7, Alamar Blue
Experimental: as §1, §2, §3, §4

[5] = test system: 143b; details: Homo sapiens, Osteosarcoma 143b, Alamar Blue
Experimental: as §1, §2, §3, §4

[6] = test system: RCC 786-O; details: Homo sapiens, 786-0, Renal RCC 786-O, Alamar Blue
Experimental: as §1, §2, §3, §4

[7] = test system: HepG2; details: Homo sapiens, Liver cancer HepG2, Alamar Blue
Experimental: as §1, §2, §3, §4

[8] = test system: A549; details: Homo sapiens
Experimental: as §1, §2, §3, §4

[9] = test system: PC-3; details: Homo sapiens, Prostate cancer PC-3, Alamar Blue
Experimental: as §1, §2, §3, §4

[10] = test system: T47D; details: Homo sapiens, Breast cancer T47D
Experimental: as §1, §2, §3, §4

[11] = test system: U-373 MG; details: Homo sapiens, U373 MG, Brain U-373 MG
Experimental: as §1, §2, §3, §4

[12] = test system: HeLa; details: Homo sapiens, Cervical HeLa, Alamar Blue
Experimental: as §1, §2, §3, §4

[13] = test system: SW480; details: Homo sapiens
Experimental: as §1, §2, §3, §4

[14] = test system: LoVo; details: Homo sapiens, Colon cancer LoVo, Alamar Blue
Experimental: as §1, §2, §3, §4

[15] = test system: NCI-H1650; details: Homo sapiens
Experimental: as §1, §2, §3, §4

[16] = test system: Daoy; details: Homo sapiens, Brain Daoy, Alamar Blue
Experimental: as §1, §2, §3, §4

[17] = test system: U-87 MG; details: Homo sapiens, Brain U-87 MG, Hexosaminidase assay (*)
Experimental: as §1, §2, §3, §4

[18] = test system: HCT-116; details: Homo sapiens, Colon cancer HCT-116, Alamar Blue
Experimental: as §1, §2, §3, §4

[19] = test system: MDA-MB-231; details: Homo sapiens, Breast cancer MDA-MB-231, Alamar Blue
Experimental: as §1, §2, §3, §4

[20] = test system: SK-HEP-1; details: Homo sapiens, SK-HEP1, Liver cancer SK-HEP-1, Alamar Blue
Experimental: as §1, §2, §3, §4

[21] = test system: LS174T; details: Homo sapiens, Colon cancer LS174T, Alamar Blue
Experimental: as §1, §2, §3, §4

[22] = test system: MIA PaCa-2; details: Homo sapiens
Experimental: as §1, §2, §3, §4

[23] = test system: SK-BR-3; details: Homo sapiens, Breast cancer SK-BR-3, Alamar Blue
Experimental: as §1, §2, §3, §4

[24] = test system: HT-29; details: Homo sapiens, Colon cancer HT-29, Alamar Blue
Experimental: as §1, §2, §3, §4

[25] = test system: OVCAR-3; details: Homo sapiens
Experimental: as §1, §2, §3, §4

[26] = test system: A431; details: Homo sapiens, A-431, Epidermoid A431, Alamar Blue
Experimental: as §1, §2, §3, §4

[27] = test system: RAMOS; details: Homo sapiens, Hematologic RAMOS, Alamar Blue
Experimental: as §1, §2, §3, §4

[28] = test system: NCI-H358; details: Homo sapiens, Lung cancer NCI-H358, Alamar Blue
Experimental: as §1, §2, §3, §4

[29] = test system: SK-OV-3; details: Homo sapiens, Ovarian cancer SK-OV-3, Alamar Blue
Experimental: as §1, §2, §3, §4

[30] = test system: HT-1080; details: Homo sapiens, Fibrosarcoma HT-1080, Alamar Blue
Experimental: as §1, §2, §3, §4

[31] = test system: COLO 205; details: Homo sapiens
Experimental: as §1, §2, §3, §4

[32] = Lung cancer NCI-H1975, Alamar Blue
[33] = Colon cancer SW480, Alamar Blue
[34] = Lung cancer NCI-H1650, Alamar Blue
[35] = Pancreatic cancer MIA PaCa-2, Alamar Blue
[36] = Ovarian cancer OVCAR-3, Alamar Blue
[37] = Colon cancer COLO 205, Alamar Blue

SMILES: CC(C)C[C@H](NC(=O)[C@@H]1N[C@H](c2ccccc2)[C@@H]([N+](=O)[O-])[C@@H]1c1ccccc1)B(O)O [Example 1, (R)-3-methyl-1-((2R,3R,4S,5R)-4-nitro-3,5-diphenylpyrrolidine-2-carboxamido)butylboronic acid]
- EC50 [1]: 6.3 µM
- EC50 [2]: 2.5 µM
- EC50 [3, 32]: 25 µM
- EC50 [4]: 0.7 µM
- EC50 [5]: 5 µM
- EC50 [6]: 4.7 µM
- EC50 [7]: 1.4 µM
- EC50 ([8]; Lung cancer A549, Alamar Blue): 7 µM
- EC50 [9]: 1.5 µM
- EC50 ([10]; Alamar Blue): 10 µM
- EC50 ([11]; Alamar Blue): 44 µM
- EC50 [12]: 28 µM
- EC50 [13, 33]: 1.1 µM
- EC50 [14]: 6.7 µM
- EC50 [15, 34]: 3.3 µM
- EC50 [16]: 1.3 µM
- EC50 [17]: 12 µM
- EC50 [18]: 1.9 µM
- EC50 [19]: 5.1 µM
- EC50 [20]: 0.49 µM
- EC50 [21]: 0.72 µM
- EC50 [22, 35]: 5.7 µM
- EC50 [23]: 1.2 µM
- EC50 [24]: 3.5 µM
- EC50 [25, 36]: 0.74 µM
- EC50 [26]: 0.97 µM
- EC50 [27]: 2.4 µM
- EC50 [28]: 0.79 µM
- EC50 [29]: 4.1 µM
- EC50 [30]: 1.7 µM
- EC50 [31, 37]: 11 µM

SMILES: CC(C)C[C@H](NC(=O)[C@@H]1CCCN1)B(O)O [MG-319, {(R)-3-methyl-1-[(S)-pyrrolidine-2-carboxamido]butyl}boronic acid, reference compound]
- EC50 [1]: 19 µM
- EC50 [2]: 4.7 µM
- EC50 [3, 32]: 47 µM
- EC50 [4]: 30 µM
- EC50 [5]: 0.98 µM
- EC50 [6]: 19 µM
- EC50 [7]: 8.1 µM
- EC50 [9]: 26 µM
- EC50 ([10]; Alamar Blue): 25 µM
- EC50 ([11]; Alamar Blue): 92 µM
- EC50 [12]: 52 µM
- EC50 [13, 33]: 8.8 µM
- EC50 [14]: 15 µM
- EC50 [15, 34]: 14 µM
- EC50 [16]: 41 µM
- EC50 [17]: 25 µM
- EC50 [18]: 1.8 µM
- EC50 [19]: 18 µM
- EC50 [20]: 4.2 µM
- EC50 [21]: 5.9 µM
- EC50 [22, 35]: 22 µM
- EC50 [23]: 6.2 µM
- EC50 [24]: 12.3 µM
- EC50 [25, 36]: 6.9 µM
- EC50 [26]: 10 µM
- EC50 [27]: 8.7 µM
- EC50 [28]: 24 µM
- EC50 [29]: 16 µM
- EC50 [30]: 8.9 µM
- EC50 ([31]; Colon cancer COLO 205, Hexosaminidase assay (*)): 1.9 µM

SMILES: CC(C)C[C@H](NC(=O)[C@@H]1N[C@H](c2ccccc2)[C@@H]([N+](=O)[O-])[C@@H]1c1ccco1)B(O)O [Example 11, (R)-1-((2R,3R,4S,5R)-3-(furan-2-yl)-4-nitro-5-phenylpyrrolidine-2-carboxamido)-3-methylbutylboronic acid]
- EC50 [1]: 1 µM
- EC50 [2]: 0.04 µM
- EC50 ([3]; Lung cancer NCI-H1975, Hexosaminidase assay (*)): 0.84 µM
- EC50 [4]: 0.28 µM
- EC50 [5]: 0.1 µM
- EC50 [6]: 1 µM
- EC50 [7]: 0.22 µM
- EC50 ([8]; Lung cancer A549, Hexosaminidase assay (*)): 1.3 µM
- EC50 [9]: 0.68 µM
- EC50 ([10]; Alamar Blue): 1.3 µM
- EC50 ([11]; Hexosaminidase assay (*)): 1.1 µM
- EC50 [12]: 3.1 µM
- EC50 ([13]; Colon cancer SW480, Hexosaminidase assay (*)): 1.1 µM
- EC50 [14]: 0.66 µM
- EC50 ([15]; Lung cancer NCI-H1650, Hexosaminidase assay (*)): 1.2 µM
- EC50 [16]: 0.29 µM
- EC50 [17]: 0.89 µM
- EC50 [18]: 0.28 µM
- EC50 [19]: 1.1 µM
- EC50 [20]: 0.007 µM
- EC50 [21]: 0.02 µM
- EC50 ([22]; Pancreatic cancer MIA PaCa-2, Hexosaminidase assay (*)): 0.85 µM
- EC50 [23]: 0.11 µM
- EC50 [24]: 2.5 µM
- EC50 ([25]; Ovarian cancer OVCAR-3, Hexosaminidase assay (*)): 0.28 µM
- EC50 [26]: 0.02 µM
- EC50 [27]: 0.16 µM
- EC50 [28]: 0.28 µM
- EC50 [29]: 0.33 µM
- EC50 [30]: 0.89 µM
- EC50 [31, 37]: 0.202 µM

SMILES: CC(C)C[C@H](NC(=O)[C@@H]1N[C@H](c2ccc3ccccc3c2)[C@@H]([N+](=O)[O-])[C@@H]1c1ccccc1)B(O)O [Example 12, (R)-3-methyl-1-((2R,3R,4S,5R)-5-(naphthalen-2-yl)-4-nitro-3-phenylpyrrolidine-2-carboxamido)butylboronic acid]
- EC50 [1]: 2.7 µM
- EC50 [2]: 0.8 µM
- EC50 [3, 32]: 0.78 µM
- EC50 [4]: 1.3 µM
- EC50 [5]: 0.37 µM
- EC50 [6]: 2.4 µM
- EC50 [7]: 0.5 µM
- EC50 ([8]; Lung cancer A549, Alamar Blue): 5.8 µM
- EC50 [9]: 0.3 µM
- EC50 ([10]; Hexosaminidase assay (*)): 7.1 µM
- EC50 ([11]; Alamar Blue): 11 µM
- EC50 [12]: 11 µM
- EC50 [13, 33]: 0.56 µM
- EC50 [14]: 1.7 µM
- EC50 [15, 34]: 0.37 µM
- EC50 [16]: 0.57 µM
- EC50 [17]: 2 µM
- EC50 [18]: 0.44 µM
- EC50 [19]: 3.2 µM
- EC50 [20]: 0.16 µM
- EC50 [21]: 0.26 µM
- EC50 [22, 35]: 1.9 µM
- EC50 [23]: 0.57 µM
- EC50 [24]: 0.85 µM
- EC50 [25, 36]: 0.33 µM
- EC50 [26]: 0.41 µM
- EC50 [27]: 0.5 µM
- EC50 [29]: 1.4 µM
- EC50 [30]: 0.46 µM
- EC50 [31, 37]: 2.4 µM
